According to patent US12252472B1, “Barbituric acid derivatives, their preparation and use thereof as leukocyte transmigration inhibitors and for treating inflammatory diseases, autoimmune diseases and cancer” (BAR-ILAN UNIVERSITY, priority 2017, dated 2025):

Tests used:
[1] = system: HUVECs intercellular junctions; experiment: Phenotypic changes at endothelial junctions (MesenFlow system); assay type: cell-based, human
Text: This manifestation was termed “Fluttering”. Fluttering was characterized by a rapid fluctuating movement at the intercellular junctions of adjacent HUVECs, and predominantly within tri-cellular corners. This was characterized by a rapid change in phase at the cellular edges consistent with a physical movement that was associated with no leukocytes adhesion or migration within these regions (FIG. 27). […] This observation is therefore representative of a phenotype that is indicative of a disruption in leukocyte transmigration.

C57BL/6J mice [2] = experiment: Thioglycollate peritonitis model, leukocyte counting in peritoneal liquid; assay type: in vivo, mouse
Protocol: C57BL/6J (The Jackson Laboratory) female mice were chosen for this experiment. The acute inflammation was induced by thioglycollate injection into the abdominal cavity as described by Hoover-Plow J. L. et al. (Strain and model dependent differences in inflammatory cell recruitment in mice. Inflammation Research, 2008. 57(10): p. 457-463).
Mice were injected intraperitoneally with 0.5 mL of 4% thioglycollate (Becton Dickinson, Cockeysville, MD) and after 6 or 72 hours corresponding to peak neutrophil (6 hours) and macrophage (72 hours) recruitment, peritoneal lavage fluid, and cells were harvested as previously described by Ploplis, V. A. et al. (Plasminogen deficiency differentially affects recruitment of inflammatory cell populations in mice. Blood, 1998. 91(6): p. 2005-2009). The number of neutrophils and macrophages (Tang, L. P. and J. W. Eaton, Fibrin (Ogen) Mediates Acute Inflammatory Responses to Biomaterials. Journal of Experimental Medicine, 1993. 178(6): p. 2147-2156) accumulating in the lavage were determined from the enzyme activity of myeloperoxidase for neutrophils (Himmelhoch, S. R., et al., Purification of myeloperoxidases from the bone marrow of the guinea pig. Biochemistry, 1969. 8(3): p. 914-21) and non-specific esterase for macrophage/monocytes (Torres, J. L., R. S. Rush, and A. R. Main, Physical and chemical characterization of a horse serum carboxylesterase. Arch Biochem Biophys, 1988. 267(1): p. 271-9).
After inducing the inflammation (peritonitis), compound of Formula 2 was injected at a concentration of 12.5 mg/kg (DMSO, 01% in PBS, IP), twice (one day after the other). The next day, mice were sacrificed and the peritoneal liquid was collected from the control and treated mice (n=3 for each group). Two assays were conducted for the estimation of the possible anti-inflammatory effect of compound of Formula 2: leukocyte counting (the total amount and the calculation of the percentage of different leukocyte fractions) and a flow cytometry.

C57BL/6J mice [3] = experiment: Acute dextran sodium sulfate (DSS) induced colitis model; assay type: in vivo, mouse
Protocol: The colitis was inducted by adding 1.5% DSS to the drinking water of female C57BL/6J (7-8 weeks old) mice for 5 consecutive days (days 0-4) for all animals in the experimental groups. On day 5, DSS containing water was changed for regular drinking water and treatment was initiated. The working suspension of the compound of Formula 2 was administrated at 15 mg/kg by IV, IP or SC injections at q3w regimen (administered 3 times per week) and at 30 mg/kg by PO at qd regimen (once daily). Treatment continued for 10 days and thereafter mice were euthanized.
Determination of individual body weight of animals was made prior to each dosing and the administered volume was adjusted accordingly. Additional body weights throughout the entire experimental period were taken on a daily bases. The severity of colitis Disease Activity Index (DAI) score was monitored daily according to the criteria shown in Table 3 and calculated as a sum of the weight loss score, the diarrheal score and the hematochezia score. Disease activity index (DAI) based on the methods reported by Friedman et al. (PNAS, 2009) was used.
Mice from all groups were euthanized with isoflurane 24 hours post last dose administration. Colon was collected from each mouse, filled with 4% buffered formalin and colon length was measured. Large intestines were fixed, embedded in paraffin, sections and H&E stained using modified Swiss roll technique. Histological Score evaluation was performed based on: inflammatory cells infiltration and tissue damage, in four compartments of the large intestine graded from 0 to 3.
For tissue damage, discrete lymphoepithelial lesions were scored as 1, mucosal erosions as 2, and extensive mucosal damage and/or extension through deeper structures of the bowel wall as 3. The length of ulceration was measured in mm. The two equally weighted subscores (cell infiltration and tissue damage) at each compartment of the intestine were added as a colitis severity score. Ordinary one-way ANOVA statistical analysis was performed.

human B-lymphoma cells = experiment: B-lymphoma homing assay in NOD.CB17-Prkdcscid/J mice; assay type: in vivo
Protocol: Effect on the homing of the B-lymphocytes was tested in a model of B-cell lymphoma. Compound of Formula 2 (7.5 μM) was injected IV, together with 10×10^6 human B-lymphoma cells. After one and a half hours the amount of B-lymphocytes was tested in different organs.

[4] = 7.5 μM IV together with 10×10^6 cells, after one and a half hours

COC(=O)c1ccc(COc2c(C=C3C(=O)NC(=O)NC3=O)cccc2C(C)(C)C)cc1 [Formula 2, methyl 4-((2-(tert-butyl)-6-((2,4,6-trioxotetrahydropyrimidin-5(2H)-ylidene)methyl)phenoxy)methyl) benzoate]
junctional integrity ([1]; HUVECs co-culture): maintained
Fluttering at HUVEC intercellular junctions ([1]; all HUVECs co-culture experiments): observed
amount of neutrophils and monocytes (C57BL/6J mice [2]; 12.5 mg/kg IP, twice): not affected
increase of the amount of dendritic cells in the peritoneal liquid (C57BL/6J mice [2]; 12.5 mg/kg IP, twice): 2.5 fold
reduction of the amount of lymphocytes in the peritoneal liquid (C57BL/6J mice [2]; 12.5 mg/kg IP, twice): 85%
total amount of leukocytes in the abdominal liquid (C57BL/6J mice [2]; 12.5 mg/kg IP, twice): not affected
White blood cell (WBC) counts of peritoneal fluids (C57BL/6J mice [2]; FIG. 8 legend: 30 μM injected once on the third day, n=6): reduced
Disease Activity Index (DAI) score, PO treated mice (C57BL/6J mice [3]; 30 mg/kg PO qd): maximal effect
colon length, amount by which control groups were shorter than treated groups (C57BL/6J mice [3]; all treated groups vs control groups): approximately 2 cm
Disease Activity Index (DAI) score (C57BL/6J mice [3]; all treated groups: 15 mg/kg IV, IP or SC q3w, 30 mg/kg PO qd, 10 days): significantly decreased
Weight loss score (C57BL/6J mice [3]; treated groups vs control groups): significantly lower
stool formation that readily becomes paste on the anus (C57BL/6J mice [3]; treated groups vs control mice): not detected
Histological score of large intestine (C57BL/6J mice [3]; treated vs control mice): significantly lower
homing of the cancer cells to the spleen and liver (human B-lymphoma cells; 7.5 μM IV): significantly blocked
reduction of B-lymphocyte homing in liver (human B-lymphoma cells; [4]): around 33%
reduction of B-lymphocyte homing in spleen (human B-lymphoma cells; [4]): around 22%
